The results in this text go back to patent US20210395327A1, “Growth Hormone-Releasing Hormone Antagonists and Uses Thereof” (United States Government As Represented By The Department …, priority 2019, published 2021).

Non-standard residues stand in square brackets, D forms with d. Residues, ends and D or L forms follow the SMILES beside them. *: point of attachment. Phenylacetyl(2,3,4,5,6-F5) = O=C(Cc1c(F)c(F)c(F)c(F)c1F)*; Phe(F5) = N[C@@H](Cc1c(F)c(F)c(F)c(F)c1F)C(=O)O; Phe(4-Cl) = N[C@@H](Cc1ccc(Cl)cc1)C(=O)O; hArg = N=C(N)NCCCC[C@H](N)C(=O)O; 12Ado = NCCCCCCCCCCCC(=O)O; Nle = CCCC[C@H](N)C(=O)O; Orn = NCCC[C@H](N)C(=O)O; Abu = CC[C@H](N)C(=O)O

Usually % Inhibition stands for how much of the control response was suppressed.

In one experiment the test system is HT-29 colon cancer cells. The experiment can be described thus: In vitro cell viability, HT-29. The format is cell-based, human. The note with it: Table 3B; 5 μM for 72 H; MIA-602 = 1. The procedure, abridged: (§1)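 Cells grown to ~60% confluence, serum-starved 24 h in 0.5% FBS medium, then exposed to compounds at 5 μM (some at 2 μM) or 0.1% DMSO vehicle for 72 h, in quintuplicate, medium changed every 48 h. Viability read by MTS-type CellTiter 96 AQueous assay; values are inhibitory potency relative to MIA602.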

Experiment [1] relates to NCI-N87 stomach cancer cells. The experiment can be described thus: In vitro cell viability (CellTiter 96), N87. The following applies: Table 3B; 5 μM for 72 H; MIA-602 = 1. The format is cell-based, human. Put shortly: as §1
Experiment [2] concerns stomach cancer N87 xenograft. Kind of experiment: Xenograft tumor growth in nude mice, N87. Type of experiment: in vivo. The following applies: Table 4E, Stomach Ca N87, 4 weeks; for % Inhibition: vs control.
For experiment [3], the system named is lung cancer HCC827 xenograft. The experiment can be described thus: Xenograft tumor growth in nude mice, HCC827. The format is in vivo. The note with it: Table 4B, Lung Ca HCC827, 7 weeks, 5 μg/day s.c. Put shortly: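 Female athymic NCr nu/nu mice (5–6 weeks) received s.c. trocar implants of 3 mm3 tumor fragments from donor xenografts. At 50–60 mm3, groups got daily s.c. peptide (2–10 μg) or vehicle (0.1% DMSO in 10% 1,2-propanediol) for 4–8 weeks; tumor size measured weekly versus untreated controls.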

Take `CCCC[C@H](NC(=O)[C@@H](NC(=O)[C@H](CC(=O)O)NC(=O)[C@H](CCC(N)=O)NC(=O)[C@H](CC(C)C)NC(=O)[C@H](CC(C)C)NC(=O)[C@H](CCCN)NC(=O)[C@H](Cc1c[nH]cn1)NC(=O)[C@H](C)NC(=O)[C@H](CO)NC(=O)[C@H](CC(C)C)NC(=O)[C@H](CCC(N)=O)NC(=O)[C@H](CC)NC(=O)[C@H](CC(C)C)NC(=O)[C@@H](NC(=O)[C@H](CCCN)NC(=O)[C@H](Cc1c[nH]cn1)NC(=O)[C@H](Cc1c(F)c(F)c(F)c(F)c1F)NC(=O)[C@H](CCCCNC(=N)N)NC(=O)[C@H](C)NC(=O)[C@@H](NC(=O)[C@H](Cc1ccc(Cl)cc1)NC(=O)[C@@H](NC(=O)[C@H](C)NC(=O)[C@H](CC(=O)O)NC(=O)[C@@H](CCCNC(=N)N)NC(=O)[C@H](Cc1ccc(O)cc1)NC(=O)CCCCCCCCCCCNC(=O)Cc1c(F)c(F)c(F)c(F)c1F)[C@@H](C)CC)[C@@H](C)O)C(C)C)[C@@H](C)CC)C(=O)N[C@H](CCCNC(=N)N)C(=O)N[C@@H](CCCCNC(=N)N)C(=O)NCCCCCCCCCCCC(=O)NC` [AVR-543, 5FPhAC-Ada-Tyr-DArg-Asp-Ala-Ile-Cpa-Thr-Ala-Har-5FPhe-His-Orn-Val-Leu-Abu-Gln-Leu-Ser-Ala-His-Orn-Leu-Leu-Gln-Asp-Ile-Nle-DArg-Har-Ada-NHCH3] ({Phenylacetyl(2,3,4,5,6-F5)-12Ado}-Y[dR]DAI[Phe(4-Cl)]TA[hArg][Phe(F5)]H[Orn]VL[Abu]QLSAH[Orn]LLQDI[Nle][dR][hArg][12Ado]-NHMe): the “In vitro relative inhibitory potency in comparison to MIA-602, HT-29” value in the experiment on HT-29 colon cancer cells amounted to 0.999. For the same molecule, in experiment [1], the “In vitro relative inhibitory potency in comparison to MIA-602, NCI-N87” value came out at 0.908. For the same molecule, the “Tumor Growth %” value in experiment [2] (2 μg/day s.c.) is given as 406.8%; in experiment [2] (5 μg/day s.c.), 313.90%; in experiment [3], 806.0%. In addition, the entries for the “% Inhibition” value in experiment [2] (2 μg/day s.c.), in experiment [2] (5 μg/day s.c.) and in experiment [3] (vs control) were 48.4%, 64.8% and 38.6%, respectively.
